Data published in US20150148377A1, “Quinoline Derivatives” (NOVARTIS AG, priority 2011, published 2015).

Experiments:
PI3K delta = target: T1, PI3K delta (Homo sapiens, UniProt O00329); assay: Enzymatic PI3K delta isoform inhibition (lipid kinase activity, Kinase-Glo); format: biochemical; settings: enzymatic assay
T1 construct: for the full-length p110-d subunit are generated and fused by overlapping PCR; His tag (C); made in house; host or cells: baculovirus; Tn5 (Trichoplusia ni) or TiniPro insect cells
T1 sequence (O00329 with tags, fused parts or gaps limits assumed): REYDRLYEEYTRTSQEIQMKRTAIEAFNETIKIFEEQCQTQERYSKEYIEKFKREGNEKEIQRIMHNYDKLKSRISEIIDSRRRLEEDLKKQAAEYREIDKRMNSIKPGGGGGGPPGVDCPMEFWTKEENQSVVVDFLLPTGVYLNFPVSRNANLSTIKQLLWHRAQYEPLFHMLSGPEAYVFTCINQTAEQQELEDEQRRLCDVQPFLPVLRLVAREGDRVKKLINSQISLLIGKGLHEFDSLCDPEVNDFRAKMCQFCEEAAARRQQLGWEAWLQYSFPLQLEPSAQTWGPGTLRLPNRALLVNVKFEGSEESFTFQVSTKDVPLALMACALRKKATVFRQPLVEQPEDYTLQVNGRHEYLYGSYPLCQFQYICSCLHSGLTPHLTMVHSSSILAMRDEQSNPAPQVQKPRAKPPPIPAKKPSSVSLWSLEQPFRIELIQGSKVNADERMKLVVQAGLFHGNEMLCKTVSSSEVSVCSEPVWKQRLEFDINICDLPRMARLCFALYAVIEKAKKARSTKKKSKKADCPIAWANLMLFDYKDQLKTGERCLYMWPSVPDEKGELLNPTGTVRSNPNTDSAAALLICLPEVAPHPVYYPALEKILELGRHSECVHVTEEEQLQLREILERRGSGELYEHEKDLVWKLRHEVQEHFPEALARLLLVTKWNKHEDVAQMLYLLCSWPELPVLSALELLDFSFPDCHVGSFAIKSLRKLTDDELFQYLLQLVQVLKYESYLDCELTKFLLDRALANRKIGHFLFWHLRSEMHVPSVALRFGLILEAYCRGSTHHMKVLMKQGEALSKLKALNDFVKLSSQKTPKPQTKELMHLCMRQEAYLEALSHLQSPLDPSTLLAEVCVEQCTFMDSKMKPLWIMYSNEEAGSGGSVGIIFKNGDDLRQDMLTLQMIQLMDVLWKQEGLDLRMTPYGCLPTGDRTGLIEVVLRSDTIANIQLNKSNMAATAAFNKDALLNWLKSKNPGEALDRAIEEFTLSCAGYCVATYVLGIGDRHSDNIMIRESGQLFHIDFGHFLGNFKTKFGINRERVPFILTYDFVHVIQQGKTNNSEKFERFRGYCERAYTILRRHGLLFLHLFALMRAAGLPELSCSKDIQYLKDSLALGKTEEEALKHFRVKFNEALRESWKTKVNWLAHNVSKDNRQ
Description: (§1) In a more preferred assay, the kinase reaction is performed in a final volume of 10 μl per well of a low volume non-binding CORNING, 384 well black plate (Cat. No. #3676). The final concentrations of ATP and phosphatidyl inositol (PI) in the assay are 1 μM and 10 μg/mL, respectively. The reaction is started by the addition of ATP.
(§2) The components of the assay are added per well as follows:
(§3) 50 nl test compounds in 90% DMSO per well, in columns 1-20, 8 concentrations (1/3 and 1/3.33 serial dilution step) in single. • Low control: 50 nl of 90% DMSO in half the wells of columns 23-24 (0.45% in final). • High control: 50 nl of reference compound (e.g. compound of Example 7 in WO 2006/122806) in the other half of columns 23-24 (2.5 μM in final). • Standard: 50 nl of reference compound as just mentioned diluted as the test compounds in columns 21-22. • 20 mL ‘buffer’ are prepared per assay: • 200 μl of 1M TRIS HCl pH7.5 (10 mM in final) • 60 μl of 1M MgCl2 (3 mM in final) • 500 μl of 2M NaCl (50 mM in final) • 100 μl of 10% CHAPS (0.05% in final) • 200 μl of 100 mM DTT (1 mM in final) • 18.94 mL of nanopure water • 10 mL ‘PI’ are prepared per assay: • 200 μl of 1 mg/mL 1-alpha-Phosphatidylinositol (Liver Bovine, Avanti Polar Lipids Cat. No. 840042C MW=909.12) prepared in 3% OctylGlucoside (10 μg/mL in final) • 9.8 mL of ‘buffer’ • 10 mL ‘ATP’ are prepared per assay: • 6.7 μl of 3 mM stock of ATP giving a final concentration of 1 μM per well • 10 mL of ‘buffer’ • 2.5 mL of each PI3K construct are prepared per assay in ‘PI’ with the following final concentration: • 10 nM PI3K alfa EMV B1075 • 25 nM beta EMV BV949 • 10 nM delta EMV BV1060 • 150 nM gamma EMV BV950 • 5 μl of ‘PI/PI3K’ are added per well. • 5 μl ‘ATP’ are added per well to start the reaction. • The plates are then incubated at room temperature for 60 minutes (alfa, beta, delta) or 120 minutes (gamma). • The reaction is terminated by the addition of 10 μl Kinase-Glo (Promega Cat. No. #6714). • The assay plates are read after 10 minutes in Synergy 2 reader (BioTek, Vermont USA) with an integration time of 100 milliseconds and sensitivity set to 191. • Output: The High control is around 60'000 counts and the Low control is 30'000 or lower • This luminescence assay gives a useful Z′ ratio between 0.4 and 0.7
(§4) IC50 is determined by a four parameter curve fitting routine that comes along with “excel fit”. A four parameter logistic equation is used to calculate IC50 values (IDBS XLfit) of the percentage inhibition of each compound at 8 concentrations (usually 10, 3.0, 1.0, 0.3, 0.1, 0.030, 0.010 and 0.003 μM). Alternatively, IC50 values are calculated using idbsXLfit model 204, which is a 4 parameter logistic model.
(§5) Yet alternatively, for an ATP depletion assay, compounds of the formula I to be tested are dissolved in DMSO and directly distributed into a white 384-well plate at 0.5 μl per well. To start the reaction, 10 μl of 10 nM PI3 kinase and 5 μg/mL 1-alpha-phosphatidylinositol (PI) are added into each well followed by 10 μl of 2 μM ATP. The reaction is performed until approx 50% of the ATP is depleted, and then stopped by the addition of 20 μl of Kinase-Glo solution (Promega Corp., Madison, Wis., USA). The stopped reaction is incubated for 5 minutes and the remaining ATP is then detected via luminescence. IC50 values are then determined.

PI3K alpha = target: T2, PI3K alpha (Homo sapiens, UniProt P42336); assay: Enzymatic PI3K alpha isoform inhibition (lipid kinase activity, Kinase-Glo); format: biochemical; settings: enzymatic assay
T2 construct: His tag (C); made in house; host or cells: baculovirus; Tn5 (Trichoplusia ni) or TiniPro insect cells
T2 sequence (P42336 with tags, fused parts or gaps limits assumed): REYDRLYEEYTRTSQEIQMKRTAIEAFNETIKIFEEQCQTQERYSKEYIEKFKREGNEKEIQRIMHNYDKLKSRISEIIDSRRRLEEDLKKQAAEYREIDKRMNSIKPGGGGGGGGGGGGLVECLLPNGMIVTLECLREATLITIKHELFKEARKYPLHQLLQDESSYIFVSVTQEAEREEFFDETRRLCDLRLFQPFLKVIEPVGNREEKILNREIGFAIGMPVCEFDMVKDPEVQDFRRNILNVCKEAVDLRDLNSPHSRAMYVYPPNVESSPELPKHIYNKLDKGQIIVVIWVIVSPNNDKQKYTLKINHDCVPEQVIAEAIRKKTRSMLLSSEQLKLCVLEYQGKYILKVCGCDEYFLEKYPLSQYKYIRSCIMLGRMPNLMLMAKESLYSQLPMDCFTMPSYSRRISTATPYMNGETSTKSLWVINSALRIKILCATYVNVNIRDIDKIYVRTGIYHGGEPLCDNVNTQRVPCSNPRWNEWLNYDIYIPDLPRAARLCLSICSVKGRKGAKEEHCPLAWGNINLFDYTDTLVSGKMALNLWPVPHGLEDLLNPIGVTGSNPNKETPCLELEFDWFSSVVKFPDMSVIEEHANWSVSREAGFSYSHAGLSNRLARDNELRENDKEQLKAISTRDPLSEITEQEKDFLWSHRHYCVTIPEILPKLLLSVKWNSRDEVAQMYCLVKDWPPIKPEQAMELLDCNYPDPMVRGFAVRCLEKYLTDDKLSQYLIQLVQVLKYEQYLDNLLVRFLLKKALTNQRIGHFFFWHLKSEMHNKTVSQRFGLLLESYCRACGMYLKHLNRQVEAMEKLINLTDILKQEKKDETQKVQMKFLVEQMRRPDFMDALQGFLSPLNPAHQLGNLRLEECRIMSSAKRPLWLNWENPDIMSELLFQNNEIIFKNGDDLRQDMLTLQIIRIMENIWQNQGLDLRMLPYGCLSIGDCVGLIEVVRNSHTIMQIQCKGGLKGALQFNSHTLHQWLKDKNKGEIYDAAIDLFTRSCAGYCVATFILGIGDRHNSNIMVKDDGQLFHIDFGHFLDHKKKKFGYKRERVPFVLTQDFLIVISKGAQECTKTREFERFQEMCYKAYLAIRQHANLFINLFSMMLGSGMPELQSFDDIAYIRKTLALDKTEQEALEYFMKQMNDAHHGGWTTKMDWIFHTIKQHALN
Description: The kinase reaction is performed in a final volume of 50 μl per well of a half area COSTAR, 96 well plate. The final concentrations of ATP and phosphatidyl inositol in the assay are 5 μM and 6 μg/mL, respectively. The reaction is started by the addition of PI3 kinase, e.g. PI3 kinase δ.
as §1, §2, §3, §4, §5

IC50 (PI3K delta) [nM] | IC50 (PI3K alpha) [nM] | SMILES
5 | 802 | COc1ncc(-c2ccnc3ccc(O[C@H]4CCN(C(=O)C5CCOCC5)C4)cc23)cc1F [Example A13, {(S)-3-[4-(5-Fluoro-6-methoxy-pyridin-3-yl)-quinolin-6-yloxy]-pyrrolidin-1-yl}-(tetrahydro-pyran-4-yl) methanone]
14 | 543 | COc1ncc(-c2ccnc3ccc(O[C@H]4CCN(C(=O)C5CCN(C(C)=O)CC5)C4)cc23)cc1C [Example A27, 1-(4-{(S)-3-[4-(6-Methoxy-5-methyl-pyridin-3-yl)-quinolin-6-yloxy]-pyrrolidine-1-carbonyl}-piperidin-1-yl)-ethanone]
48 | 1650 | Cc1cc(-c2ccnc3ccc(O[C@H]4CCN(C(=O)C5CCS(=O)(=O)CC5)C4)cc23)cnc1OC(F)F [Example A38, {(S)-3-[4-(6-Difluoromethoxy-5-methyl-pyridin-3-yl)-quinolin-6-yloxy]-pyrrolidin-1-yl}-(1,1-dioxo-hexahydro-1lambda*6*-thiopyran-4-yl)-methanone]
43 | 745 | CS(=O)(=O)c1ncc(-c2ccnc3ccc(O[C@H]4CCN(C(=O)C5CCOCC5)C4)cc23)cc1C(F)(F)F [Example A37, {(S)-3-[4-(6-Methanesulfonyl-5-trifluoromethyl-pyridin-3-yl)-quinolin-6-yloxy]-pyrrolidin-1-yl}-(tetrahydro-pyran-4-yl)-methanone]
6 | 253 | COc1ncc(-c2ccnc3ccc(O[C@H]4CCN(C(=O)C5CCOCC5)C4)cc23)cc1C [Example A14, {(S)-3-[4-(6-Methoxy-5-methyl-pyridin-3-yl)-quinolin-6-yloxy]-pyrrolidin-1-yl}-(tetrahydro-pyran-4-yl)methanone]

Further lines, the compound ahead of its results:

SMILES | IC50 (PI3K delta) [nM] | IC50 (PI3K alpha) [nM]
Cc1cc(-c2ccnc3ccc(O[C@H]4CCN(C(=O)C5CCOCC5)C4)c(C)c23)cnc1S(C)(=O)=O [Example B5, {(S)-3-[4-(6-Methanesulfonyl-5-methyl-pyridin-3-yl)-5-methyl-quinolin-6-yloxy]-pyrrolidin-1-yl}-(tetrahydro-pyran-4-yl)-methanone] | 11 | 664
Cc1cc(-c2ccnc3ccc(O[C@H]4CCN(C(=O)C(C)C)C4)cc23)cnc1S(C)(=O)=O [Example A36, 1-{(S)-3-[4-(6-Methanesulfonyl-5-methyl-pyridin-3-yl)-quinolin-6-yloxy]-pyrrolidin-1-yl}-2-methyl-propan-1-one] | 39 | 1570
COc1ncc(-c2ccnc3ccc(O[C@H]4CCN(C(=O)C5CCS(=O)(=O)CC5)C4)c(C)c23)cc1C(F)F [Example B4, {(S)-3-[4-(5-Difluoromethyl-6-methoxy-pyridin-3-yl)-5-methyl-quinolin-6-yloxy]-pyrrolidin-1-yl}-(1,1-dioxo-hexahydro-1lambda*6*-thiopyran-4-yl)-methanone] | 5 | 177
Cc1cc(-c2ccnc3ccc(O[C@H]4CCN(C(=O)C5CCS(=O)(=O)CC5)C4)cc23)cnc1S(C)(=O)=O [Example A23, (1,1-Dioxo-hexahydro-1lambda*6*-thiopyran-4-yl)-{(S)-3-[4-(6-methanesulfonyl-5-methyl-pyridin-3-yl)-quinolin-6-yloxy]-pyrrolidin-1-yl}-methanone] | 10 | 1140
